# Tests used:
# [1] = test system: mouth of professional panelists; assay: Test Experiment 1: sensory evaluation of cooling sensation strength in the mouth; format: in vivo, human; details: 180 ppm aqueous solution in the mouth, 10 panelists; relative score, Comparative Example 1 taken as 3
# Method: (§1) [Test Experiment 1] Sensory Evaluation for Comparison of Cooling Sensation Strength between (1S)-p-Menthane-3,8-diol Isomer Mixture, (1RS)-p-Menthane-3,8-diol Isomer Mixture, and (1R)-p-Menthane-3,8-diol Isomer Mixture Aqueous solutions containing 180 ppm of the (1S)-p-menthane-3,8-diol isomer mixture, the (1RS)-p-menthane-3,8-diol isomer mixture, and the (1R)-p-menthane-3,8-diol isomer mixture obtained in Example 1, Example 2, and Comparative Example 1, respectively, were prepared. Sensory evaluation was conducted in the mouth on these 180 ppm aqueous solutions by 10 professional panelists having 5-year or longer experience.
# [2] = test system: mouth of professional panelists; assay: Test Experiment 2: sensory evaluation of cooling sensation persistence in the mouth; format: in vivo, human; details: for Cooling sensation persistence time: 180 ppm aqueous solution retained in the mouth 30 seconds, then spit out, time until cooling sensation disappeared, average of 10 panelists; for persistence of cooling sensation effect relative to the (1R)-p-menthane-3,8-diol isomer mixture: 180 ppm aqueous solution, from Table 2
# Method: as §1, with “2]” for “1]”, “Persistence” for “Strength”, “experience. In the sensory evaluation, each 180 ppm aqueous solution was retained in the month for 30 seconds, and then spit out. After that, the time taken until the cooling sensation disappeared was measured, and the average was calculated to evaluate the effect.” for “experience.”
SMILES,Average cooling sensation strength score [1],Cooling sensation persistence time [2],"persistence of cooling sensation effect relative to the (1R)-p-menthane-3,8-diol isomer mixture [2]"
"C[C@@H]1CCC(C(C)(C)O)C(O)C1 (mixture of isomers) [Comparative Example 1, (1R)-p-menthane-3,8-diol isomer mixture, reference compound]",3,4.3 min,
"C[C@H]1CCC(C(C)(C)O)C(O)C1 (mixture of isomers) [Example 1, (1S)-p-menthane-3,8-diol isomer mixture]",15,15.5 min,approximately 3.6 times
"CC1CCC(C(C)(C)O)C(O)C1 (racemic) [Example 2, (1RS)-p-menthane-3,8-diol isomer mixture]",9,9.8 min,approximately 2.3 times

# From US20140219931A1, “P-MENTHANE-3,8-DIOL ISOMER MIXTURE, COOLING SENSATION COMPOSITION COMPRISING THE SAME, AND PRODUCT COMPRISING THE COOLING SENSATION COMPOSITION” (TAKASAGO INTERNATIONAL CORPORATION, priority 2011, published 2014)
